Legend:
[1] = Inhibition of killing activity of CD8+ specific mouse CTL-OE4 cells; type: functional, cell-based
[2] = system: A549; assay: Inhibition of IL-1-beta-induced ICAM1 expression in human A549 cells; type: functional, cell-based

SMILES: C=C1CCC2=C(C)CC[C@H]3C(=C)C(=O)O[C@@H]3[C@@H]12
- IC50 [1]: 15 µM
- IC50 [2]: 8 µM

SMILES: C=C1CC[C@]23O[C@@]2(C)CC[C@@H]2[C@H](OC(=O)[C@H]2C)[C@@H]13
- IC50 [1]: 597 µM
- IC50 [2]: 504 µM

SMILES: C=C1CC[C@H]2C(=C)CC[C@@H]3[C@H](OC(=O)[C@H]3C)[C@@H]12 [MOKKO LACTONE]
- IC50 [1]: > 1000 µM
- IC50 [2]: 251 µM

SMILES: C=C1CC[C@@H]2[C@H]1[C@H]1OC(=O)[C@@H](C)[C@@H]1C[C@H]1O[C@@]21C
- IC50 [1]: 422 µM
- IC50 [2]: 117 µM

SMILES: C=C1CC[C@H]2C(=C)CCC3=C(C)C(=O)O[C@@H]3[C@@H]12
- IC50 [1]: 50 µM
- IC50 [2]: 442 µM

SMILES: C=C1CC[C@H]2C(C)=CCC3=C(C)C(=O)O[C@@H]3[C@@H]12
- IC50 [1]: > 100 µM
- IC50 [2]: 142 µM

SMILES: C=C1CC[C@@]23O[C@]2(C)CC[C@H]2C(=C)C(=O)O[C@@H]2[C@@H]13
- IC50 [1]: 7 µM
- IC50 [2]: 7 µM

SMILES: C=C1CC[C@@H]2[C@H](OC(=O)[C@H]2C)[C@H]2C(C)=CC[C@@H]12
- IC50 [1]: > 100 µM

SMILES: C=C1CC[C@@]23O[C@]2(C)CC[C@@H]2[C@H](OC(=O)[C@H]2C)[C@@H]13
- IC50 [1]: > 1000 µM
- IC50 [2]: 253 µM

SMILES: C=C1CC[C@@H]2[C@H]1[C@H]1OC(=O)C(=C)[C@@H]1C[C@H]1O[C@@]21C
- IC50 [1]: 8 µM
- IC50 [2]: 6 µM

SMILES: C=C1CC[C@H]2C(=C)CC[C@H]3C(=C)C(=O)O[C@@H]3[C@@H]12 [DEHYDROCOSTUSLACTONE]
- IC50 [1]: 14 µM
- IC50 [2]: 10 µM

SMILES: C=C1CC[C@]23O[C@@]2(C)CCC2=C(C)C(=O)O[C@@H]2[C@@H]13
- IC50 [1]: > 1000 µM
- IC50 [2]: 136 µM

SMILES: C=C1CC[C@H]2C(C)=CC[C@H]3C(=C)C(=O)O[C@@H]3[C@@H]12 [EREMANTHIN]
- IC50 [1]: 11 µM
- IC50 [2]: 46 µM

SMILES: C=C1C(=O)O[C@@H]2[C@H]3C(C)=CC[C@H]3C(=C)CC[C@@H]12 [ISODEHYDROCOSTUS LACTONE]
- IC50 [1]: 16 µM

SMILES: C=C1CC[C@]23O[C@@]2(C)CC[C@H]2C(=C)C(=O)O[C@@H]2[C@@H]13
- IC50 [1]: 7 µM
- IC50 [2]: 10 µM

Reference: ChEMBL document CHEMBL1157980, “Guaianolides as immunomodulators. Synthesis and biological activities of dehydrocostus lactone, mokko lactone, eremanthin, and their derivatives” (J Nat Prod, 1999)
